Experiments:
[1] = test system: carrageenan-induced monoarthritis in rat; assay: Monoarthritis induced by carrageenan, Paw Print setup (hindpaw weight-bearing, "Walking pain"); assay type: in vivo; conditions: for difference in weight bearing between the hind paws: three hours after carrageenan (two hours after administration), vehicle group 30.2±3.2%, mean ±SEM, n=8
Procedure: The compounds used according to the invention when given by systemic administration to mice or rats, specifically reduce pain in the rat carrageenan test as described by Tonussi and Ferreira (Pain 1992, 48, 421-427). One single injection of carrageenan directly into the rat knee joint produces symptoms peaking at 3 to 4 hours and lasting for one to two days, and which are sensitive to treatment by most anti-nociceptive drugs (Tonussi and Ferreira, Pain 1992, 48, 421-427). Under isoflurane anesthesia, 50 μL of carrageenan (7.5 mg/mL) was injected into the left tibio-tarsal (ankle) joint from the dorsal side. This injection causes a localized inflammation increasing to a maximum between 4 h to 8 h after induction, after which it gradually decreases, and the animals display decreased weight bearing on and guarding of the limb. The Paw Print walkway consists of a 100×10 cm path with an access point at one short end and an exit at the other, and the rats are trained to make a swift, continuous passage. The walkway has a glass floor where light is projected into one long edge via fiber optics. Projecting the light in this fashion allows for virtually complete internal reflection within the glass floor. Only where an object touches the glass, such as the placement of a rat paw, light is scattered at the point of contact and produces an illuminated print (Betts, Duckworth, Eng. Med. 1978, 7, 223-228) that is recorded by a wide-angle camera placed under the walkway. The light intensity (range 0-255) of the illumination depends on the degree of contact against the floor and increases with the applied pressure (Clarke, Physiology & Behavior 1995, 58, 415-419). The Paw Print setup is a modified version of the CatWalk introduced by […], van Laar, Veldhuis, Gispen (J. Neurotrauma 2001, 18, 187-201), and has a computerized gait detection algorithm extracting several parameters pertaining to the rat's gait pattern and weight-bearing. The animals were trained to cross the walkway twice, one and two days before induction of monoarthritis. Recordings were subsequently made on the day of testing, immediately before, and three and five hours after carrageenan injection, corresponding to two and four hours after per oral administration of test compound. The following parameters were used for analysis: Weight-bearing per paw=The total sum of maximum light intensities for all pixels in the print of one paw is multiplied by the number of pixels of the print area. A paw placement consists of a number of pixels with light intensity above a certain threshold value (80 in this study). During the time course of one paw placement, a maximum value of light intensity is recorded for each pixel. Based on the weight-bearing results, the Paw Print algorithm chooses the median print per paw in one walkway crossing. The median weight-bearing of each paw constitutes a percentage of the sum of all four paws' median weight-bearing results. The difference in percent weight-bearing between the two hind paws is shown (“Walking pain”). The test compounds were administered 60 min after induction of monoarthritis. […] Results were analysed using 1-Way ANOVA followed by Newman-Keuls for comparison between treatment groups for data obtained at each time-point after administration. The level of significance was set at p<0.05 (SigmaStat® 2.03).

human Trk A kinase = target: T1, human Trk A kinase (Homo sapiens, UniProt P04629); assay: Trk A kinase assay (Alphascreen); assay type: biochemical; conditions: 70 μM ATP, 20 minutes, room temperature
T1 construct: HIS; made in house; host or cells: SF9 cells
Procedure: After incubation of the kinase with a biotinylated substrate and adenosine triphosphate (ATP) for 20 minutes at room temperature, the kinase reaction was stopped by the addition of 30 mM ethylenediaminetetraacetic acid (EDTA). The reaction was performed in 384 well microtitre plates and the reaction products were detected with the addition of strepavidin coated Donor Beads and phosphotyrosine-specific antibodies coated Acceptor Beads using the EnVision Multilabel Plate Reader after an overnight incubation at room temperature.

T1 sequence (P04629 442-796): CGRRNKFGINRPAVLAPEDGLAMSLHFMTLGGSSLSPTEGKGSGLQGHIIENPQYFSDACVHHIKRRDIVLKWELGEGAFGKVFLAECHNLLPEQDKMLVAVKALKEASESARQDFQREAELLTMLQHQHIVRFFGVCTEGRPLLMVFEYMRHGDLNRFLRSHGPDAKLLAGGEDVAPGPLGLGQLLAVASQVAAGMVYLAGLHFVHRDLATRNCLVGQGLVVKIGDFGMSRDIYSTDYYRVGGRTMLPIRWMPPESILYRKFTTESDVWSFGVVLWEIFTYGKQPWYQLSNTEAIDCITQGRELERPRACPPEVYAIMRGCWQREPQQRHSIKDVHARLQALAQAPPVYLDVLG

CC(C)Oc1cc(Nc2nc(N[C@@H](C)c3ccc(F)cn3)ncc2Cl)n[nH]1 [5-Chloro-N^2-[(1S)-1-(5-fluoropyridin-2-yl)ethyl]-N^4-(5-isopropoxy-1H-pyrazol-3-yl)pyrimidine-2,4-diamine]
difference in weight bearing between the hind paws ([1]; 30 μmol/kg per oral): 9.2±4.0% | difference in weight bearing between the hind paws ([1]; 120 μmol/kg per oral): 14.9±4.4% | effect on the inflammatory pain induced by intra-articular ankle injection of carrageenan ([1]; all doses (30 μmol/kg, 60 μmol/kg p.o.)): significant effect | hindpaw weight distribution compared to the vehicle group ([1]; all three doses 30, 60 and 120 μmol/kg per oral, both at two and four hours after administration, p<0.05): significantly reduced | dose dependence of the effect on hindpaw weight distribution ([1]; dose interval tested, 30-120 μmol/kg per oral): no apparent dose dependence

C[C@H](Nc1ncc(Br)c(Nc2cc(C3CC3)[nH]n2)n1)c1ccc(F)cn1 [(S)-5-Bromo-N^4-(5-cyclopropyl-1H-pyrazol-3-yl)-N^2-(1-(5-fluoropyridin-2-yl)ethyl)pyrimidine-2,4-diamine]
IC50 (human Trk A kinase): 5 nM

C[C@H](Nc1ncc(Cl)c(Nc2cc(C3CC3)[nH]n2)n1)c1ccc(F)cn1 [(S)-5-Chloro-N^4-(5-cyclopropyl-1H-pyrazol-3-yl)-N^2-(1-(5-fluoropyridin-2-yl)ethyl)pyrimidine-2,4-diamine]
IC50 (human Trk A kinase): 8 nM

C[C@H](Nc1ncc(F)c(Nc2cc(C3CC3)[nH]n2)n1)c1ccc(F)cn1 [(S)-5-Fluoro-N^4-(5-cyclopropyl-1H-pyrazol-3-yl)-N^2-(1-(5-fluoropyridin-2-yl)ethyl)pyrimidine-2,4-diamine]
IC50 (human Trk A kinase): 10 nM

Source: patent US20080108633A1, “Use 540” (AstraZeneca AB, priority 2006, published 2008)
